Measured values from patent US20240358682A1, “USE OF ALPHA-2-ADRENERGIC RECEPTOR AGONISTS FOR IMPROVING VISION” (Allergan, Inc., priority 2018, published 2024).

Tests used:
[1] = tested on: Dutch Belted rabbits; test: In vivo rabbit miosis model, low-light (scotopic) conditions; details: for miotic efficacy compared with brimonidine: single topical dose, low light, FIG. 1 to FIG. 4; for animals with greater than 2.5 mm reduction in pupil size from baseline: 0.1% w:v, scotopic (<10 lux), n=6
Procedure: (§1) Female Dutch Belted rabbits (Covance, Princeton, New Jersey) weighing between 2-4 kg were used for these studies. […] For topical dosing, eye drops (volume=35 μl) were instilled into the lower conjunctival sac of the test eye.
Pupil diameter was measured in both the treated and untreated eye with an Optistick to the nearest 0.5 mm. […] All studies were done under low-light conditions in which a red photography light is used providing 2-10 Lux of light.

[2] = tested on: patients; test: Patient case examples (presbyopia, glare/starbursts/halos, night vision, night myopia); type: in vivo, human
Text: A person complains of an inability to focus on text when reading up close, which is interfering with their ability of read documents at work, as well as reading books and news articles. The problem seems worse under lower lighting conditions, such as the dim lighting in a restaurant. The visual degradation had been occurring over time, but in recent months, the person's inability to focus on text when read close up had been more pronounced such as to interfere with their quality of life. The person is seen by an ophthalmologist who performs a visual acuity test in which they are asked to read lines of letters on an eye chart without the assistance of glasses or contacts (neither of which they wear anyway). They find that they are only able to read the first four lines on the chart, when a person with normal vision should be able to read six. Based on the person's age and results of the test, they are diagnosed with presbyopia. The person is reluctant to have to obtain reading glasses or wear contact lenses and asks if there are any other medical treatments. They are instructed to administer to their eyes a composition comprising a compound of Formula I one or two times a day. Starting with the first couple of doses, the patient reports improved vision when reading text up close. On a follow-up visit to the ophthalmologist, they are again asked to read lines of letters on an eye chart (they are still administering the composition with the compound of Formula I to their eyes), and this time they are able to read the first six lines, a two line improvement over their previous results prior to administering the compound of Formula I to their eyes.
A person has noticed that their near vision has been deteriorating over the last few years such that they often have to hold reading material almost out to arm's length in order to be able to read the print, especially when the ambient light is dim. The person visits their ophthalmologist who performs a basic eye exam and refraction assessment. Based on the examination, the ophthalmologist prescribes a composition comprising brimonidine to constrict the person's pupil to treat the presbyopia, and the person is instructed to administer the composition to their eyes daily as needed.
A person decides to undergo LASIK surgery. The surgeon who will perform the surgery evaluates the patient and determines that they are a suitable candidate for the surgery, but is told that side effects of the surgery include visual glare, visual starbursts, and visual halos, especially at night. The surgeon performs the surgery without any noticeable issues and the patient is discharged. A day later the patient drives home during the evening for the first time since the surgery and notices what appear to be starbursts of light emanating from the headlights and rear lights of other cars, as well as from street lights, and also glare coming from those light sources that interfere with is vision. The patient also observes diffuse rings around some of the street lights and illuminated street signs. Upon consultation, the surgeon confirms that such visual disturbances are indeed the visual glare, visual starburst, and visual halo side effects often seen after LASIK surgery, and the patient is prescribed a composition comprising the compound of Formula I, which the patient administers to their eyes in accordance with the package instructions.
A person has noticed that they are having issues seeing the street names on street signs with good contrast when they are driving at night. The person consults with their ophthalmologist who, upon hearing the patient's description and performing a visual acuity test under low light conditions, prescribes a composition comprising the compound of Formula I, which the patient administers to their eyes in accordance with the package instructions. […]

[3] = tested on: Dutch Belted rabbits; test: In vivo rabbit miosis model, room light conditions; details: room lighting conditions, FIG. 5
Procedure: Percentage amounts are % w:v.
as §1
Pupil diameter was measured in both the treated and untreated eye with an Optistick to the nearest 0.5 mm. In all studies, baseline pupil diameter measurements were taken prior to drug administration and then at 0.5, 1, 2, 3 and 4 hours post dose. […]

[4] = Procedure: Aliquots of the PBS only curve were quenched at time zero to be used as stability controls and calibration standards. Following centrifugation, samples were analyzed by LC-MS/MS bioanalysis. Back-calculated concentrations using the assay PBS curve were used for binding and stability calculations.
[5] = tested on: presbyopic patients; details: different lighting conditions, McDonald II et al.; cited from earlier work

In the case of `CCc1c(N=C2NCCN2)ccc2[nH]cnc12` [Compound 2, reference compound], the “miotic efficacy compared with brimonidine” value [1] is reported as “much less than brimonidine”.
In the case of `Cc1c(N=C2NCCN2)ccc2[nH]cnc12` [Compound 1], the “ability to focus on distant objects at night” value ([2]; person with night myopia) is reported as “as good as their ability to do so during the day”, the “administrations needed per day to treat presbyopia” value ([2]; person with presbyopia) is reported as “once (or sometimes twice)” and the “improvement in lines read on eye chart” value ([2]; person with presbyopia, composition one or two times a day) is reported as “two”. The night vision contrast ([2]; person, driving at night) was “much better contrast”, the “visual glare, starbursts and halos after LASIK” value ([2]; person, night driving) was “significantly reduced” and the “miotic action compared with brimonidine (peak pupil constriction and duration of action)” value [3] was “greater miotic action than brimonidine”. The “melanin binding (assessment in words)” value [4] was “no significant melanin binding”, the “animals with greater than 2.5 mm reduction in pupil size from baseline” value ([1]; after 6 hours) was “more than half” and the “animals with greater than 2.5 mm reduction in pupil size from baseline” value ([1]; two hours after dosing) was “virtually all”. The “miotic efficacy compared with brimonidine” value [1] was “greater magnitude of pupil size reduction”, the “pupil constriction at 9 hours after dosing” value ([1]; topical dose, FIG. 6) was “significant pupil constriction” and the “effect on pupil constriction compared to Compound 3” value ([1]; topical dose, FIG. 7) was “greater effect”.
In the case of `Brc1c(NC2=NCCN2)ccc2nccnc12` [Compound 4, brimonidine, reference compound], the “administrations needed per day to treat presbyopia” value ([2]; person with presbyopia) is given as “three”, the “average pupil size after brimonidine” value [5] is given as 3.4 mm and the “melanin binding (assessment in words)” value [4] is given as “much more significant binding”. The “animals with greater than 2.5 mm reduction in pupil size from baseline” value ([1]; after 6 hours) was “virtually none” and the “animals with greater than 2.5 mm reduction in pupil size from baseline” value ([1]; half hour after dosing) was “much less than half”.
With `Brc1c(N=C2NCCN2)ccc2[nH]cnc12` [Compound 3, reference compound] the “miotic efficacy compared with brimonidine” value [1] was “much less than brimonidine”.
